{
  "source": "paper PMC3425516",
  "about": "(PLoS ONE, 2012)",
  "key": {"[1]": {"tested_on": "HUVEC", "test": "Crystal violet cell growth assay", "assay_type": "cell-based, human", "protocol": "The HUVECs were seeded into 96-well culture plates (5000 cells/well) in quadruplicate. After 24 h incubation, cells were fixed with 0.1% crystal violet/20% methanol, representing cell population at the time of drug treatment (T 0). […] After 48 h incubation at 37°C, cells were stained with 0.1% crystal violet/20% methanol for 10 minutes and washed for 3 times."}, "[2]": {"target": "recombinant human HDAC2 (Homo sapiens, UniProt Q92769)", "sequence (Q92769 whole entry)": "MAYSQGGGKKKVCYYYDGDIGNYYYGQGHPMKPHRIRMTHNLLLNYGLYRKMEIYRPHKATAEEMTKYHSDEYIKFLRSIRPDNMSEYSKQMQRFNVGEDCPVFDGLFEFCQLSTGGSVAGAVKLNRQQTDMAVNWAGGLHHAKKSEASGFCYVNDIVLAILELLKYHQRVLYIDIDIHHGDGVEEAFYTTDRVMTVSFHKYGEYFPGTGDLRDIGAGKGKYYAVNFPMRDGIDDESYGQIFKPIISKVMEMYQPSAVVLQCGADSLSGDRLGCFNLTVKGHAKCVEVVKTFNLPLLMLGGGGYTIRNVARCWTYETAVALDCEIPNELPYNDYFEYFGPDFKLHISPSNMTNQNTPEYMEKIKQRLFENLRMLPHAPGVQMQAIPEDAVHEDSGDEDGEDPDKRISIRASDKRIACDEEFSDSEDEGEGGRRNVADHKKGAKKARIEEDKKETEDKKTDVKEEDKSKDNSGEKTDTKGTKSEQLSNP", "test": "HDAC biochemical assay (fluorogenic)", "details": "Class I, mean±SE", "from_the_text": "(§3) The HDACs in vitro activities of recombinant human HDAC 1, 2, 4, 6 and 8 (BPS Biosciences) were detected by fluorigenic release of 7-amino-4-methylcoumarin from substrate upon deacetylase enzymatic activity."}, "[3]": {"tested_on": "HCT116 cells", "test": "Western blot histone H3 and α-tubulin acetylation", "assay_type": "cell-based, human", "details": "24 h", "protocol": "(§1) For total lysate, cells were lysed with the 120 µL ice-cold lysis buffer [10 mmol/L Tris-HCl (pH 7.4), 150 mmol/L NaCl, 1 mmol/L EGTA, 1 mmol/L phenylmethylsulfonyl fluoride, 10 µg/mL aprotinin, 10 µg/mL leupeptin, 1 mM sodium orthovandate, 1 mM NaF, and 1% Triton X-100]. Cell lysates were centrifuged at 13,000 rpm for 30 min. For Western blot analysis, the amount of protein (40 µg) was separated by electrophoresis in a 10% or 15% polyacrylamide gel and transferred to a polyvinylidene difluoride (PVDF) membrane. After 1 h incubation at room temperature in PBS/5% nonfat milk, the membrane was washed with PBS/0.1% and incubated with the indicated antibodies at 4°C overnight. After washings with PBS/0.1% Tween 20, the corresponding secondary antibodies were applied to the membranes for 1 h at room temperature. The membranes were then washed with PBS/0.1% Tween 20 and the detection of signal was done with an enhanced chemiluminescence detection kit (Amersham, Buckinghamshire, UK)."}, "[4]": {"target": "recombinant human HDAC4 (Homo sapiens, UniProt P56524)", "sequence (P56524 whole entry)": "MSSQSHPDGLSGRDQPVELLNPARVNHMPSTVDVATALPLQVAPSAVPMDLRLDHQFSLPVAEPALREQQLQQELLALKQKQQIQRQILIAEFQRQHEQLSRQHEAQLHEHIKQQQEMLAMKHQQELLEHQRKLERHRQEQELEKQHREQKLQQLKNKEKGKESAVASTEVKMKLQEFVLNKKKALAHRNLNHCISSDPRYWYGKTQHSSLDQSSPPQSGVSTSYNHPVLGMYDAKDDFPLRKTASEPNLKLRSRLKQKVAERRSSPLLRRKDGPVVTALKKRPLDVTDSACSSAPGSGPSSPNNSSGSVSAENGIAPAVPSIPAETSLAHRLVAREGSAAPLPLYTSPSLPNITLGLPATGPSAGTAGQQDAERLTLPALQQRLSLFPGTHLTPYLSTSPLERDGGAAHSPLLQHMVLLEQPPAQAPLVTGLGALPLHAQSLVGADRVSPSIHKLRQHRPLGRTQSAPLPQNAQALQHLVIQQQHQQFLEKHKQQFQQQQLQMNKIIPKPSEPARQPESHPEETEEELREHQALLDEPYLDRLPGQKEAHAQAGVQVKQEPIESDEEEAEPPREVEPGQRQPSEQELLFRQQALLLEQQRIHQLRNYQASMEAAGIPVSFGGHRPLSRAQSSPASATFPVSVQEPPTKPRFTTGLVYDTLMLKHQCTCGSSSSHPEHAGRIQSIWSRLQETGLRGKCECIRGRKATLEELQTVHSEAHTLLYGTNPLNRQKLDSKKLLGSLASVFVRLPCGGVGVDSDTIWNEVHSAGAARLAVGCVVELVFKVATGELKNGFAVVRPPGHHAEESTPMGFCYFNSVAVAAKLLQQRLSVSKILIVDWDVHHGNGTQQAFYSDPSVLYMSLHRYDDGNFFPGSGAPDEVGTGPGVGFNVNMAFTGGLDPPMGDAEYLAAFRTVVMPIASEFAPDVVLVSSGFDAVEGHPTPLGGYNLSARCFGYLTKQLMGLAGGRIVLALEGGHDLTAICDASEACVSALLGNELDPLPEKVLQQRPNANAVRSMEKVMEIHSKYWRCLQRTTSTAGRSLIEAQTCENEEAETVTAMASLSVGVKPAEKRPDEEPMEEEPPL", "test": "biochemical", "from_the_text": "as §3"}, "[5]": {"tested_on": "total HDAC activity in HCT116 cells", "test": "Total HDACs enzymatic activity assay in treated cells", "assay_type": "cell-based, human", "details": "HCT116 cells treated 24 h", "protocol": "Total HDACs enzyme activity was determined using the Boc-Lys(Ac)-AMC fluorometric HDAC activity assay kit (BioVision, Mountain View, CA, USA)."}, "[6]": {"tested_on": "HCT116 xenograft tumors", "test": "Western blot of HCT116 xenograft tumor tissues", "assay_type": "in vivo, nude mice", "details": "200 mg/kg oral daily for 7 days", "protocol": "as §1, with “For Western blot analysis, the amount of protein (40 µg) was separated by electrophoresis in a 10% or 15% polyacrylamide gel and transferred to a polyvinylidene difluoride (PVDF) membrane.” left out\nOnce a tumor was palpable with the size of approximately 55 mm^3, mice were randomized into vehicle control and treatment groups (8 mice per group). Control mice received the vehicle (0.5% carboxymethyl cellulose +0.1% Tween 80). Tumors in all 3 groups were allowed to reach an endpoint volume of 1,200 mm^3."}, "[7]": {"tested_on": "NCI-H460", "test": "NCI-60 cell lines screening", "assay_type": "cell-based", "details": "Homo sapiens, NCI-H460, Non-Small Cell Lung Cancer panel", "protocol": "(§2) The NCI-60 cancer cell lines screening was conducted by the NCI’s Developmental Therapeutics Program (DTP; http://www.dtp.nci.nih.gov/branches/btb/ivclsp.html)."}, "[8]": {"tested_on": "HL-60 (TB)", "test": "NCI-60 cell lines screening", "assay_type": "cell-based", "details": "Leukemia panel", "protocol": "as §2"}, "[9]": {"target": "recombinant human HDAC1 (Homo sapiens, UniProt Q13547)", "sequence (Q13547 whole entry)": "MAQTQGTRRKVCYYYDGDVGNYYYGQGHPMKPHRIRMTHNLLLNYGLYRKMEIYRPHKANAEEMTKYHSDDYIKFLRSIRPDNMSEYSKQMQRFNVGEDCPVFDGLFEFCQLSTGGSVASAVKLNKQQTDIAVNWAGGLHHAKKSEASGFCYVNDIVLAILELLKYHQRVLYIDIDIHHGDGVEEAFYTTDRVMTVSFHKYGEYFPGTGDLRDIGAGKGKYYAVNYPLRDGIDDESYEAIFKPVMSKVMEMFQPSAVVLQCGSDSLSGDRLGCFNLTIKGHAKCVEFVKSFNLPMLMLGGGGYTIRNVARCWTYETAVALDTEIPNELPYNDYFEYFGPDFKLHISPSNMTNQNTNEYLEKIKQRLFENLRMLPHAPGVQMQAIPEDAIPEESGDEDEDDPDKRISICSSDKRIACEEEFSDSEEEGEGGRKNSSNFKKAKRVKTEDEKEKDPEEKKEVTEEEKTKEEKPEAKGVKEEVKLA", "test": "biochemical", "from_the_text": "as §3"}},
  "data": [
    {"smiles": "O=C(C=Cc1ccc2c(c1)CCN2S(=O)(=O)c1ccccc1)NO", "note": "[MPT0E028, 3-(1-benzenesulfonyl-2,3-dihydro-1H-indol-5-yl)-N-hydroxy-acrylamide]", "values": [
      {"measurement": "GI50", "setting": "[1]; HUVEC (human normal cells), crystal violet assay, 48 h", "result": "3.57 ± 0.45", "unit": "µM"},
      {"measurement": "folds less sensitive against normal cells (safety margin)", "setting": "[1]; HUVEC versus cancer cells", "result": "20–40 folds"},
      {"measurement": "IC50", "setting": "[2]", "result": "106 ± 23", "unit": "nM"},
      {"measurement": "histone H3 acetylation (western blot)", "setting": "[3]", "result": "induced stronger hyperacetylation of histone H3 than that of SAHA"},
      {"measurement": "IC50", "setting": "[4]", "result": "> 10", "unit": "µM"},
      {"measurement": "IC50", "setting": "[5]", "result": "4.43 ± 0.5", "unit": "µM"},
      {"measurement": "expression of caspase 3, PARP, acetyl-histone H3 and acetyl-tubulin in xenograft tumors", "setting": "[6]", "result": "caspase 3, PARP and acetyl-histone H3 were substantially induced"},
      {"measurement": "GI50", "setting": "[7]", "result": 0.144, "unit": "µM"},
      {"measurement": "CC50", "setting": "[7]; read-out: LC50 (the source's name)", "result": 21.6, "unit": "µM"},
      {"measurement": "GI50", "setting": "[8]; Homo sapiens", "result": 0.439, "unit": "µM"},
      {"measurement": "CC50", "setting": "[8]; Homo sapiens, read-out: LC50 (the source's name)", "result": "> 100", "unit": "µM"},
      {"measurement": "TGI", "setting": "[8]", "result": ">100", "unit": "µM"},
      {"measurement": "IC50", "setting": "[9]", "result": "0.053 ± 0.012", "unit": "µM"}
    ]}
  ]
}
